Measured values reported in paper PMC9165921 (Molecular Biology, 2022).

Test system: SARS-CoV-2 strain PIK35
Assay: microbe, parasite or virus in culture
Assay type: cell-based
Details: Severe acute respiratory syndrome coronavirus 2, Vero, 120 h

Structure (SMILES): O=c1nc(NO)ccn1[C@@H]1O[C@H](CO)[C@@H](O)[C@H]1O [N^4-hydroxycytidine]
- EC50: > 5 µM
